Experimental data as given in patent US20220002279A1, “NOVEL IMIDAZOLE DERIVATIVE” (priority 2018, published 2022).
In brackets after ≈: the same amount, converted by molar mass. Where two headings read alike, the source gives them in different places.

Key:
[1] = tested on: Escherichia coli strain ATCC25922; test: Antimicrobial activity, MIC by broth microdilution; assay type: cell-based; conditions: ATCC25922, 18 h, cation-adjusted Mueller-Hinton broth, about 5×10^5 CFU/mL, 35° C., about 18 hours, read-out: MIC Escherichia coli ATCC25922
Description: (§1) Test Example 4 Evaluation of the Antimicrobial Activity
(§2) For minimum inhibitory concentration (MIC) measurement, the following broth microdilution method was applied as adapted from the standard procedure recommended by the CLSI (Clinical and Laboratory Standards Institute).
(§3) The bacteria used were Pseudomonas aeruginosa strain ATCC27853, Escherichia coli strain ATCC25922, and Klebsiella pneumoniae strain ATCC13883. After culture overnight on a heart infusion agar medium, the cells of a test bacterium were scraped off, and a bacterial solution suspended to have a turbidity of level 0.5 on the McFarland scale was diluted and used as an inoculum solution. The inoculum solution was inoculated in a cation-adjusted Mueller-Hinton broth medium containing a test compound so that the final inoculation concentration was about 5×10^5 CFU/mL, and cultured at 35° C. for about 18 hours. A minimum drug concentration at which no cell growth was visible to the naked eye was designated as MIC. […] In the table, ND represents the case where suppression of the cell growth in a drug concentration-dependent manner was not observed (Not Determined), and NT represents that no test was conducted (Not Tested).

[2] = tested on: Klebsiella pneumoniae strain ATCC13883; test: Antimicrobial activity, MIC by broth microdilution; assay type: cell-based; conditions: ATCC13883, cation-adjusted Mueller-Hinton broth, about 5×10^5 CFU/mL, 35° C., about 18 hours, read-out: MIC Klebsiella pneumoniae ATCC13883
Description: as §1, §2, §3

[3] = tested on: Pseudomonas aeruginosa strain ATCC27853; test: Antimicrobial activity, MIC by broth microdilution; assay type: cell-based; conditions: ATCC27853, 18 h, cation-adjusted Mueller-Hinton broth, about 5×10^5 CFU/mL, 35° C., about 18 hours, read-out: MIC Pseudomonas aeruginosa ATCC27853
Description: as §1, §2, §3

[4] = biological target: T1, Escherichia coli LpxC enzyme (Escherichia coli, UniProt P0A725); test: Inhibitory activity on Escherichia coli LpxC enzyme (fluorescamine method); assay type: biochemical
T1 construct: made in house; host or cells: Escherichia coli
T1 sequence (P0A725 1-305): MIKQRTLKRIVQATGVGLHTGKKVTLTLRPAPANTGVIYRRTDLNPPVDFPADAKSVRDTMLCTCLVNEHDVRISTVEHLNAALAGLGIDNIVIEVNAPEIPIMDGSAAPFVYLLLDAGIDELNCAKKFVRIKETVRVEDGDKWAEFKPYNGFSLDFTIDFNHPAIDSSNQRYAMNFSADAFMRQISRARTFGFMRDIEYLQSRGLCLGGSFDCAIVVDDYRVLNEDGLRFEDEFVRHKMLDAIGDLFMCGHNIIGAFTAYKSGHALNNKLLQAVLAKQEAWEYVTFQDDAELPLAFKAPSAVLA
Protocol: To assay the activity of Escherichia coli LpxC enzyme, LpxC was reacted with its substrate, UDP-3-O-(R-3-hydroxymyristoyl)-N-acetylglucosamine, and the amount of the reaction product was quantified by the amino groups present in the product
The reaction was terminated by the addition of 1.0 mg/mL-fluorescamine dissolved in a solvent obtained by mixing an equal amount of acetonitrile and dimethylformamide with the reaction mixture, and then, a 0.2 mol/L-sodium phosphate buffer solution (pH 8.0) was added thereto, and the amount of the reaction product was detected at an excitation wavelength/fluorescence wavelength=390 nm/495 nm. An inhibition curve was obtained by performing the aforementioned reaction in the presence of various concentrations of test compounds.

[5] = fluorescamine detection, 3.1 nmol/L enzyme, 20 μmol/L substrate, pH 6.5, 120 min, read-out: IC50 (inhibitory activity on Escherichia coli LpxC enzyme, Fluoresamine method)

| Compound | MIC [1] [µg/mL] | MIC [2] [µg/mL] | MIC [3] [µg/mL] | IC50 [4, 5] [nM] | IC50 [4] [nM] |
| --- | --- | --- | --- | --- | --- |
| C[C@H](O)c1nccn1Cc1cc(-c2ccc(C#CCNC3CC3)cc2)on1 [Compound 51, (1S)-1-{1-[(5-(4-[3-(cyclopropylamino)prop-1-yn-1-yl]phenyl}-1,2-oxazol-3-yl)methyl]-1H-imidazol-2-yl}ethan-1-ol] | 1 (≈ 2.76 µM) | 2 (≈ 5.52 µM) | > 32 | 182 | – |
| COCCN1C[C@@H]2[C@@H](C#Cc3ccc(-c4cc(Cn5ccnc5[C@H](C)O)no4)cc3)[C@@H]2C1 [Compound 34, (1S)-1-(1-{[5-(4-{[(1R,5S,6s)-3-(2-methoxyethyl)-3-azabicyclo[3.1.0]hexan-6-yl]ethynyl}phenyl)-1,2-oxazol-3-yl]methyl}-1H-imidazol-2-yl)ethan-1-ol] | 0.25 (≈ 0.578 µM) | 0.5 (≈ 1.16 µM) | 8 (≈ 18.5 µM) | 108 | – |
| C[C@H](O)c1nccn1Cc1cc(-c2ccc(C#CC3C(CO)C3CO)cc2)on1 (stereo partly drawn) [Compound 109, (1S)-1-(1-{[5-(4-{[2,3-Bis(hydroxymethyl)cyclopropyl]ethynyl}phenyl)-1,2-oxazol-3-yl]methyl}-1H-imidazol-2-yl)ethan-1-ol] | 16 (≈ 40.7 µM) | 32 (≈ 81.3 µM) | 64 (≈ 163 µM) | – | 131 |
| CC(O)CN1C[C@@H]2[C@@H](C#Cc3ccc(-c4cc(Cn5ccnc5[C@H](C)O)on4)cc3)[C@@H]2C1 (stereo partly drawn) [Compound 121, 1-[(1R,5S,6s)-6-({4-[5-((2-[(1S)-1-hydroxyethyl]-1H-imidazol-1-yl}methyl)-1,2-oxazol-3-yl]phenyl}ethynyl)-3-azabicyclo[3.1.0]hexan-3-yl]propan-2-ol] | 0.5 (≈ 1.16 µM) | 1 (≈ 2.31 µM) | 16 (≈ 37 µM) | 98.5 | – |
| C[C@H](O)c1nccn1Cc1cc(-c2ccc(C#C[C@@H]3[C@H]4CN(C(=O)C(N)=O)C[C@@H]34)cc2)on1 [Compound 107, 2-[(1R,5S,6s)-6-((4-[3-((2-[(1S)-1-hydroxyethyl]-1H-imidazol-1-yl}methyl)-1,2-oxazol-5-yl]phenyl}ethynyl)-3-azabicyclo[3.1.0]hexan-3-yl]-2-oxoacetamide] | 2 (≈ 4.49 µM) | 1 (≈ 2.24 µM) | 8 (≈ 18 µM) | 78.6 | – |
| CC(=O)N1C[C@@H]2[C@@H](C#Cc3ccc(-c4cc(Cn5ccnc5[C@H](C)O)no4)cc3)[C@@H]2C1 [Compound 37, 1-[(1R,5S,6s)-6-({4-[3-({2-[(1S)-1-Hydroxyethyl]-1H-imidazol-1-yl}methyl)-1,2-oxazol-5-yl]phenyl}ethynyl)-3-azabicyclo[3.1.0]hexan-3-yl]ethan-1-one] | 1 (≈ 2.4 µM) | 2 (≈ 4.8 µM) | 32 (≈ 76.8 µM) | 58.2 | – |
| C[C@H](O)c1nccn1Cc1cc(-c2ccc(C#C[C@@H]3[C@H]4CNC[C@@H]34)cc2)no1 [Compound 83, (1S)-1-(1-{[3-(4-{[(1R,5S,6s)-3-azabicyclo[3.1.0]hexan-6-yl]ethynyl}phenyl)-1,2-oxazol-5-yl]methyl}-1H-imidazol-2-yl)ethan-1-ol] | 8 (≈ 21.4 µM) | 8 (≈ 21.4 µM) | 8 (≈ 21.4 µM) | 136 | – |
| C[C@H](O)c1nccn1Cc1cc(-c2ccc(C#C[C@@H]3[C@H]4CN(C=O)C[C@@H]34)cc2)on1 [Compound 73, (1R,5S,6s)-6-({4-[3-({2-[(1S)-1-Hydroxyethyl]-1H-imidazol-1-yl}methyl)-1,2-oxazol-5-yl]phenyl}ethynyl)-3-azabicyclo[3.1.0]hexane-3-carbaldehyde] | 1 (≈ 2.48 µM) | 2 (≈ 4.97 µM) | 64 (≈ 159 µM) | 38.5 | – |
| C[C@H](O)c1nccn1Cc1cc(-c2ccc(C#C[C@@H]3[C@H]4CN(C(CO)CO)C[C@@H]34)cc2)on1 [Compound 56, 2-[(1R,5S,6s)-6-({4-[3-((2-[(1S)-1-hydroxyethyl]-1H-imidazol-1-yl}methyl)-1,2-oxazol-5-yl]phenyl}ethynyl)-3-azabicyclo[3.1.0]hexan-3-yl]propan-1,3-diol] | 1 (≈ 2.23 µM) | 2 (≈ 4.46 µM) | 8 (≈ 17.8 µM) | 83.7 | – |
| C[C@H](O)c1nccn1Cc1cc(-c2ccc(C#C[C@@H]3[C@H]4CN(C(=O)C(O)CO)C[C@@H]34)cc2)on1 (stereo partly drawn) [Compound 79, 2,3-dihydroxy-1-[(1R,5S,6s)-6-({4-[3-({2-[(1S)-1-hydroxyethyl]-1H-imidazol-1-yl}methyl)-1,2-oxazol-5-yl]phenyl}ethynyl)-3-azabicyclo[3.1.0]hexan-3-yl]propan-1-one] | 2 (≈ 4.32 µM) | 4 (≈ 8.65 µM) | 32 (≈ 69.2 µM) | 92.7 | – |
| CC(O)CN1CCC(C#Cc2ccc(-c3cc(Cn4ccnc4[C@H](C)O)no3)cc2)CC1 (stereo partly drawn) [Compound 128, 1-[4-((4-[3-({2-[(1S)-1-hydroxyethyl]-1H-imidazol-1-yl]methyl)-1,2-oxazol-5-yl]phenyl}ethynyl)piperidin-1-yl]propan-2-ol] | 8 (≈ 18.4 µM) | 16 (≈ 36.8 µM) | > 128 | 331 | – |
| COCCN1C[C@@H]2[C@@H](C#Cc3ccc(-c4cc(Cn5ccnc5[C@H](C)O)on4)cc3)[C@@H]2C1 [Compound 84, (1S)-1-(1-{[3-(4-{[(1R,5S,6s)-3-(2-methoxyethyl)-3-azabicyclo[3.1.0]hexan-6-yl]ethynyl}phenyl)-1,2-oxazol-5-yl]methyl}-1H-imidazol-2-yl)ethan-1-ol] | 0.5 (≈ 1.16 µM) | 0.5 (≈ 1.16 µM) | 16 (≈ 37 µM) | 102 | – |
| CC(=O)N1C[C@@H]2[C@@H](C#Cc3ccc(-c4cc(Cn5ccnc5[C@H](C)O)on4)cc3)[C@@H]2C1 [Compound 86, 1-[(1R,5S,6s)-6-({4-[5-((2-[(1S)-1-hydroxyethyl]-1H-imidazol-1-yl}methyl)-1,2-oxazol-3-yl]phenyl}ethynyl)-3-azabicyclo[3.1.0]hexan-3-yl]ethan-1-one] | 1 (≈ 2.4 µM) | 1 (≈ 2.4 µM) | 32 (≈ 76.8 µM) | 46.4 | – |
| C[C@H](O)c1nccn1Cc1cc(-c2ccc(C#C[C@@H]3[C@H]4CN(CCCCCC(=O)O)C[C@@H]34)cc2)on1 [Compound 94, 6-[(1R,5S,6s)-6-({4-[3-({2-[(1S)-1-hydroxyethyl]-1H-imidazol-1-yl}methyl)-1,2-oxazol-5-yl]phenyl}ethynyl)-3-azabicyclo[3.1.0]hexan-3-yl]hexanoic acid] | 2 (≈ 4.09 µM) | 4 (≈ 8.19 µM) | 16 (≈ 32.7 µM) | 412 | – |
| C[C@H](O)c1nccn1Cc1cc(-c2ccc(C#CC(C)(C)O)cc2)on1 [Compound 32, 4-(4-[3-({2-[(1S)-1-hydroxyethyl]-1H-imidazol-1-yl}methyl)-1,2-oxazol-5-yl]phenyl}-2-methylbut-3-yn-2-ol] | 8 (≈ 22.8 µM) | 16 (≈ 45.5 µM) | > 128 | 335 | – |
| COCC(O)CN1C[C@@H]2[C@@H](C#Cc3ccc(-c4cc(Cn5ccnc5[C@H](C)O)on4)cc3)[C@@H]2C1 (stereo partly drawn) [Compound 85, 1-[(1R,5S,6s)-6-({4-[5-({2-[(1S)-1-hydroxyethyl]-1H-imidazol-1-yl}methyl)-1,2-oxazol-3-yl]phenyl}ethynyl)-3-azabicyclo[3.1.0]hexan-3-yl]-3-methoxypropan-2-ol] | 0.5 (≈ 1.08 µM) | 0.5 (≈ 1.08 µM) | 8 (≈ 17.3 µM) | 96.8 | – |
| C[C@H](O)c1nccn1Cc1cc(-c2ccc(C#C[C@@H]3[C@H]4CN(CC5COC5)C[C@@H]34)cc2)on1 [Compound 42, (1S)-1-[1-({5-[4-({(1R,5S,6s)-3-[(Oxetan-3-yl)methyl]-3-azabicyclo[3.1.0]hexan-6-yl}ethynyl)phenyl]-1,2-oxazol-3-yl}methyl)-1H-imidazol-2-yl]ethan-1-ol] | 0.25 (≈ 0.562 µM) | 0.5 (≈ 1.12 µM) | 16 (≈ 36 µM) | 46.8 | – |
| C[C@H](O)c1nccn1Cc1cc(-c2ccc(C#CC3(N(C)C)CC3)cc2)on1 [Compound 50, (1S)-1-(1-{[5-(4-{[1-(dimethylamino)cyclopropyl]ethynyl}phenyl)-1,2-oxazol-3-yl]methyl}-1H-imidazol-2-yl)ethan-1-ol] | 2 (≈ 5.31 µM) | 4 (≈ 10.6 µM) | > 128 | 205 | – |
